Assay results: patent US20090069300A1, “ISOQUINOLINYL AND ISOINDOLINYL DERIVATIVES AS HISTAMINE-3 ANTAGONISTS” (Wyeth, priority 2007, published 2009)
Structures can show the parent of a compound that is named as a salt.

melting point [°C] | SMILES
222 to 224 | O=C(NC1CC1)c1ccc(-c2ccc3c(c2)CCN(CCN2CCCC2)C3=O)cc1 (as salt: hydrochloride) [Example 57, N-cyclopropyl-4-[1-oxo-2-(2-pyrrolidin-1-ylethyl)-1,2,3,4-tetrahydroisoquinolin-6-yl]benzamide]
272 to 274 | O=C(c1ccc(-c2ccc3c(c2)CCN(CCN2CCCC2)C3=O)cc1)N1CCOCC1 (as salt: hydrochloride) [Example 122, 6-[4-(morpholin-4-ylcarbonyl)phenyl]-2-(2-pyrrolidin-1-ylethyl)-3,4-dihydroisoquinolin-1(2H)-one]
248 to 250 | CN(C)C(=O)c1ccc(-c2ccc3c(c2)CCN(CCN2CCCC2)C3)cc1 (as salt: hydrochloride) [Example 183, N,N-dimethyl-4-[2-(2-pyrrolidin-1-ylethyl)-1,2,3,4-tetrahydroisoquinolin-6-yl]benzamide]
158 to 159 | CNC(=O)c1ccc(-c2ccc3c(c2)CCN(CCCN2CCCC2)C3=O)cc1 (as salt: hydrochloride) [Example 141, N-methyl-4-[1-oxo-2-(3-pyrrolidin-1-ylpropyl)-1,2,3,4-tetrahydroisoquinolin-6-yl]benzamide]
193 to 195 | CCOCCNC(=O)c1ccc(-c2ccc3c(c2)CCN(CCN2CCCC2)C3=O)cc1 (as salt: hydrochloride) [Example 72, N-(2-ethoxyethyl)-4-[1-oxo-2-(2-pyrrolidin-1-ylethyl)-1,2,3,4-tetrahydroisoquinolin-6-yl]benzamide]
196 to 198 | O=C1c2ccc(-c3cc(F)cc(F)c3)cc2CCN1CCN1CCCC1 (as salt: hydrochloride) [Example 10, 6-(3,5-difluorophenyl)-2-(2-pyrrolidin-1-ylethyl)-3,4-dihydroisoquinolin-1(2H)-one]
255 to 258 | O=C(NC1CCC1)c1ccc(-c2ccc3c(c2)CCN(CCN2CCCC2)C3=O)cc1 (as salt: hydrochloride) [Example 63, N-cyclobutyl-4-[1-oxo-2-(2-pyrrolidin-1-ylethyl)-1,2,3,4-tetrahydroisoquinolin-6-yl]benzamide]
170 to 171 | C[C@@H]1CCCN1C(=O)c1ccc(-c2ccc3c(c2)CCN(CCN2CCCC2)C3=O)cc1 (as salt: hydrochloride) [Example 82, 6-(4-{[(2R)-2-methylpyrrolidin-1-yl]carbonyl}phenyl)-2-(2-pyrrolidin-1-ylethyl)-3,4-dihydroisoquinolin-1(2H)-one]
212 to 214 | C[C@@H]1CCCN1CCN1CCc2cc(OCc3ccc(C#N)cc3)ccc2C1=O (as salt: hydrochloride) [Example 120, (R)-4-((2-(2-(2-Methylpyrrolidin-1-yl)ethyl)-1-oxo-1,2,3,4-tetra-hydroisoquinolin-6-yloxy)methyl)benzonitrile hydrochloride]
140 to 141 | C[C@@H]1CCCN1CCN1CCc2cc(C(=O)NC3CCCCC3)ccc2C1=O (as salt: hydrochloride) [Example 147, N-cyclohexyl-2-{2-[(2R)-2-methylpyrrolidin-1-yl]ethyl}-1-oxo-1,2,3,4-tetrahydroisoquinoline-6-carboxamide]
144 to 147 | O=C(c1ccc2c(c1)CCN(CCN1CCCC1)C2=O)N1CCCCC1 (as salt: hydrochloride) [Example 155, 6-(piperidine-1-carbonyl)-2-(2-(pyrrolidin-1-yl)ethyl)-3,4-dihydroisoquinolin-1(2H)-one]
219 to 220 | C[C@@H]1CCCN1CCN1CCc2cc(C(=O)NC3CCCC3)ccc2C1=O (as salt: hydrochloride) [Example 149, N-cyclopentyl-2-{2-[(2R)-2-methylpyrrolidin-1-yl]ethyl}-1-oxo-1,2,3,4-tetrahydroisoquinoline-6-carboxamide]
272 to 273.5 | C[C@@H]1CCCN1CCN1CCc2cc(-c3ccc4c(c3)CCNC4=O)ccc2C1=O (as salt: hydrochloride) [Example 157, (R)-2-(2-(2-methylpyrrolidin-1-yl)ethyl)-3,3′,4,4′-tetrahydro-6,6′-biisoquinoline-1,1′(2H,2′H-dione hydrochloride]
123 to 130 | O=C(NCCOc1ccccc1)c1ccc(-c2ccc3c(c2)CCN(CCN2CCCC2)C3=O)cc1 (as salt: hydrochloride) [Example 71, 4-[1-oxo-2-(2-pyrrolidin-1-ylethyl)-1,2,3,4-tetrahydroisoquinolin-6-yl]-N-(2-phenoxyethyl)-benzamide]
215 to 216 | O=C(NCCF)c1ccc(-c2ccc3c(c2)CCN(CCN2CCCC2)C3=O)cc1 (as salt: hydrochloride) [Example 68, N-(2-fluoroethyl)-4-[1-oxo-2-(2-pyrrolidin-1-ylethyl)-1,2,3,4-tetrahydroisoquinolin-6-yl]benzamide]
99 to 100 | O=C(O)c1ccc(Oc2ccc3c(c2)CCN(CCN2CCCC2)C3=O)cc1
> 225 | C[C@@H]1CCCN1CCN1CCc2cc(N3CCCCC3)ccc2C1=O (as salt: hydrochloride) [Example 161, 2-{2-[(2R)-2-methylpyrrolidin-1-yl]ethyl}-6-piperidin-1-yl-3,4-dihydroisoquinolin-1(2H)-one]

melting point [°C] | SMILES
118 to 120 | COC(=O)c1ccc(-c2ccc3c(c2)CCN(CCN2CCCC2)C3=O)cc1 (as salt: hydrochloride)
218 to 220 | O=C1c2ccc(-c3ccccc3)cc2CCN1CCN1CCCC1 (as salt: hydrochloride) [Example 16, 6-phenyl-2-(2-pyrrolidin-1-ylethyl)-3,4-dihydroisoquinolin-1(2H)-one]
229 to 230 | O=C(c1ccc(-c2ccc3c(c2)CCN(CCN2CCCC2)C3=O)cc1)N1CCC1 (as salt: hydrochloride) [Example 64, 6-[4-(azetidin-1-ylcarbonyl)phenyl]-2-(2-pyrrolidin-1-ylethyl)-3,4-dihydroisoquinolin-1(2H)-one]
250 to 251 | Fc1ccc(-c2ccc3c(c2)CCN(CCN2CCCC2)C3)cc1 [Example 177]
245 to 246 | O=C1c2ccc(N3CCCCC3)cc2CCN1CCN1CCCC1 (as salt: hydrochloride) [Example 162, 6-(piperidin-1-yl)-2-(2-(pyrrolidin-1-yl)ethyl)-3,4-dihydroisoquinolin-1(2H)-one]
175 to 176 | N#Cc1cccc(-c2ccc3c(c2)CCN(CCCN2CCCC2)C3=O)c1 (as salt: hydrochloride) [Example 33, 3-[1-oxo-2-(3-pyrrolidin-1-ylpropyl)-1,2,3,4-tetrahydroisoquinolin-6-yl]benzonitrile]
192 to 193 | C[C@@H]1CCCN1CCN1CCc2cc(C(=O)N3CCCCCC3)ccc2C1=O (as salt: hydrochloride) [Example 144, 6-(azepan-1-ylcarbonyl)-2-{2-[(2R)-2-methylpyrrolidin-1-yl]ethyl}-3,4-dihydroisoquinolin-1(2H)-one]
249 to 250 | N#Cc1ccc(-c2ccc3c(c2)CCN(CCCN2CCCCC2)C3=O)cc1 (as salt: hydrochloride) [Example 45, 4-[1-oxo-2-(3-piperidin-1-ylpropyl)-1,2,3,4-tetrahydroisoquinolin-6-yl]benzonitrile hydrochloride]
240 to 241 | O=C(c1ccc(-c2ccc3c(c2)CCN(CCN2CCCC2)C3=O)cc1)N1CCCCC1 (as salt: hydrochloride) [Example 79, 6-[4-(piperidin-1-ylcarbonyl)phenyl]-2-(2-pyrrolidin-1-ylethyl)-3,4-dihydroisoquinolin-1(2H)-one]
225 to 226 | CN1CCc2cc(-c3ccc4c(c3)CCN(CCN3CCCC3)C4=O)ccc2C1=O (as salt: hydrochloride) [Example 158, 2-methyl-2′-(2-(pyrrolidin-1-yl)ethyl)-3,3′,4,4′-tetrahydro-6,6′-biisoquinoline-1,1′(2H,2′H)-dione hydrochloride]
166 to 167 | C[C@@H]1CCCN1CCN1CCc2cc(C(=O)N3CCCC3)ccc2C1=O (as salt: hydrochloride) [Example 151, 2-{2-[(2R)-2-methylpyrrolidin-1-yl]ethyl}-6-(pyrrolidin-1-ylcarbonyl)-3,4-dihydroisoquinolin-1(2H)-one]
260 to 261 | O=C(c1ccc(-c2ccc3c(c2)CCN(CCN2CCCC2)C3)cc1)N1CCOCC1 (as salt: hydrochloride) [Example 186, 6-[4-(morpholin-4-ylcarbonyl)phenyl]-2-(2-pyrrolidin-1-ylethyl)-1,2,3,4-tetrahydroisoquinoline]
228 to 230 | CCNC(=O)c1ccc(-c2ccc3c(c2)CCN(CCN2CCC[C@H]2C)C3=O)cc1 (as salt: hydrochloride) [Example 75, N-ethyl-4-(2-{2-[(2R)-2-methylpyrrolidin-1-yl]ethyl}-1-oxo-1,2,3,4-tetrahydroisoquinolin-6-yl)benzamide]
262 to 263 | CNC(=O)c1ccc(-c2ccc3c(c2)C(=O)N(CCN2CCC[C@H]2C)CC3)cc1 (as salt: hydrochloride) [Example 83, N-methyl-4-(2-{2-[(2R)-2-methylpyrrolidin-1-yl]ethyl}-1-oxo-1,2,3,4-tetrahydroiso-quinolin-7-yl)benzamide]
255 to 257 | C[C@@H]1CCCN1CCN1CCc2cc(-c3ccc(C(=O)NC4CC4)cc3)ccc2C1=O (as salt: hydrochloride) [Example 76, N-cyclopropyl-4-(2-{2-[(2R)-2-methylpyrrolidin-1-yl]ethyl}-1-oxo-1,2,3,4-tetrahydroisoquinolin-6-yl)benzamide]
216 to 218 | O=C(NCC1CC1)c1ccc(-c2ccc3c(c2)CCN(CCN2CCCC2)C3=O)cc1 (as salt: hydrochloride) [Example 60, N-(cyclopropylmethyl)-4-[1-oxo-2-(2-pyrrolidin-1-ylethyl)-1,2,3,4-tetrahydroiso-quinolin-6-yl]benzamide]

SMILES | melting point [°C]
O=C(NCCCl)c1ccc(-c2ccc3c(c2)CCN(CCN2CCCC2)C3=O)cc1 (as salt: hydrochloride) [Example 123, N-(2-chloroethyl)-4-[1-oxo-2-(2-pyrrolidin-1-ylethyl)-1,2,3,4-tetrahydroisoquinolin-6-yl]benzamide] | 236 to 237
